Values of other authors, collected in US7479499B2 (Celgene Corporation, priority 2000, dated 2009).

Key:
[1] = test system: metastatic colorectal cancer patients
[2] = test system: patients with metastatic colorectal cancer; conditions: irinotecan monotherapy
[3] = second line treatment of colorectal cancer after 5FU

| SMILES | complete responses ([1]; metastatic colorectal cancer) | partial responses, share of patients ([1]; metastatic colorectal cancer) | Expected (%) Grade 1-4 Abdominal colic/pain ([2]; abdominal colic/pain, grade 1-4) [%] | Expected (%) Grade 3-4 Abdominal colic/pain ([2]; abdominal colic/pain, grade 3-4) [%] | Expected (%) Grade 1-4 Asthenia ([2]; asthenia, grade 1-4) [%] | Expected (%) Grade 3-4 Asthenia ([2]; asthenia, grade 3-4) [%] | Expected (%) Grade 1-4 Constipation ([2]; constipation, grade 1-4) [%] | Expected (%) Grade 3-4 Constipation ([2]; constipation, grade 3-4) [%] | Expected (%) Grade 1-4 Diarrhea (Late) ([2]; late diarrhea, grade 1-4) [%] | Expected (%) Grade 3-4 Diarrhea (Late) ([2]; late diarrhea, grade 3-4) [%] | Expected (%) Grade 1-4 Nausea ([2]; nausea, grade 1-4) [%] | Expected (%) Grade 1-4 Vomiting ([2]; vomiting, grade 1-4) [%] | Expected (%) Grade 3-4 Vomiting ([2]; vomiting, grade 3-4) [%] | debilitating (Grade 3-4) late onset diarrhea, share of patients ([1]; late onset: more than 24 hours after administration) | complete response rate [1, 3] | median duration of response [1, 3] [months] | overall response rates [1, 3] | early onset diarrhea, frequency ([1]; within 24 hours of drug administration) |
| --- | --- | --- | --- | --- | --- | --- | --- | --- | --- | --- | --- | --- | --- | --- | --- | --- | --- | --- |
| O=c1[nH]cc(F)c(=O)[nH]1 [5FU, 5-fluorouracil] | extremely rare | less than 25% |  |  |  |  |  |  |  |  |  |  |  |  |  |  |  |  |
| CCc1c2c(nc3ccc(OC(=O)N4CCC(N5CCCCC5)CC4)cc13)-c1cc3c(c(=O)n1C2)COC(=O)[C@]3(O)CC [Irinotecan, (4S)-4,11-diethyl-4-hydroxy-9-[(4-piperidino-piperidino)carbonyl-oxy]1H-pyranol-[3′,4′:6,7]indolizinol[1,2-b]quinoline-3,14-(4H,12H)dione] |  |  | 23.7 | 2.3 | 75.7 | 12.2 | 29.9 | 2.0 | 87.8 | 30.6 | 86.2 | 66.8 | 12.5 | 30-40% | less than one percent | 6.4 | less than 20% | uncommon |
